The values that follow come from patent US11052090B2, “Use of TREM-1 inhibitors for treatment, elimination and eradication of HIV-1 infection” (priority 2015, dated 2021).

In general, EC50 refers to the concentration at which the effect is half-maximal. A word on the EC90: it is the concentration at which the effect reaches the 90% level. In general, IC50 refers to the point on the concentration scale where inhibition reaches its midpoint. Read a high IC50 as a need for much substance.

One data set relates to HIV-1 (BaL). The data set is described as follows: microbe, parasite or virus in culture. The class given is cell-based. Here is the method: Macrophages can be isolated as follows: Monocytes can be isolated from buffy coats of HIV-1 negative, HBV/HCV-negative donors with density gradient centrifugation coupled with enrichment for CD14+ monocytes with Rosette Sep antibody cocktail (Stem Cell Technologies, Vancouver, British Columbia). Cells can be seeded at a concentration of 1.0×10^6 cells/well for 1 hr at 37° C. and 5% CO2 to confer plastic adherence prior to repeated washes with 1×PBS. Macrophages can be maintained in medium containing 100 U/ml macrophage colony-stimulating factor (m-CSF, R&D Systems, Minneapolis, Minn.), supplemented with 20% fetal calf serum (Atlanta Biologicals, Lawrenceville, Ga.) and 1% penicillin/streptomyocin (Invitrogen, Carlsbad, Calif.) for 7 days (37° C., 5% CO2) prior to testing.
Macrophage infections: Macrophages can be cultured as described above for 7 days. For acute infection, macrophages can be serum starved for 8 hrs prior to infection and cultured for 2 hr in medium containing various concentrations of AZT (positive control) or Tofacitinib or Jakafi for 2 hr prior to removal of drug-containing medium and 4 hr infection with HIV-1BaL at 0.1 MOI in the absence of drug. Four hr after infection, virus can be removed and drug-containing medium returned to the cultures. Supernatants can be collected on day 7 post-infection and HIV-1 p24 can be quantified via ELISA (Zeptometrix Corporation, Buffalo, N.Y.). EC50 analysis can be performed using CalcuSyn software (BioSoft Corporation, Cambridge, UK).
Extracellular virus was quantified 7 days after infection (HIV-1 p24 ELISA).

Data set [1] relates to primary human macrophages. The data set is described as follows: Toxicity in primary human macrophages (zombie violet live/dead dye, FACS). As to conditions: Macrophage. The class given is cell-based.
Another data set deals with HIV-1. The protocol:
Human PBM cells can be isolated as follows: Lymphocytes can be isolated from buffy coats derived from healthy donors. Activated lymphocytes can be maintained for 72 hr in medium supplemented with 6 μg/ml phytohemagglutinin (PHA) (Cape Cod associates, East Falmouth, Mass.). Media can be comprised of RPMI media supplemented with 20% fetal calf serum, 1% penicillin/streptomyocin and 2% L-glutamine (Sigma Aldrich, San Jose, Calif.).
Human PBM cell infections: Testing can be performed in duplicate with at least 3 independent assays. Cells can be incubated in RPMI medium (HyClone, Logan, Utah) containing HR-IL2 (26.5 units/ml) and 20% fetal calf serum. Infections can be performed by adding HIV-ILA' followed by a further incubation at 37° C., 5% CO2, 1 hr prior to addition of drugs. Assays can be performed in 24 well plates (BD Biosciences, Franklin Lakes, N.J.). One ml of supernatant can be collected after 5 days in culture and then centrifuged at 12,000 rpm for 2 hr at 4° C. in a Jouan Br43i (Thermo Electron Corp., Marietta, Ohio). The product of the RT assay can be quantified using a Packard harvester and direct beta counter and the data can be analyzed as previously described (Schinazi et al., 1990).

The test system of data set [2] is primary human lymphocytes. In words: Proliferation and viability of activated PBM cells / PHA or PHA+IL-2 stimulated primary human lymphocytes. In kind it is cell-based. The note with it: for Viability, proliferation or total cell number not affected up to: human. Here is the method: The toxicity of the compounds was assessed in Vero, human PBM, CEM (human lymphoblastoid), as described previously (see Schinazi R. F., Sommadossi J.-P., Saalmann V., Cannon D. L., Xie M.-Y., Hart G. C., Smith G. A. & Hahn E. F. Antimicrob. Agents Chemother. 1990, 34, 1061-67), and also in MØ cells. Cycloheximide was included as positive cytotoxic control, and untreated cells exposed to cell culture medium were included as negative controls. […]
Cell proliferation was evaluated in activated PBM cells incubated for 5 days with various concentrations of Tofacitinib and Jakafi, with cycloheximide as a positive control, and a “cells plus media” control used as well. The data is shown in FIG. 2, in terms of total cell number (10^6 cells) versus μM drug in medium.
Cell viability was evaluated in activated PBM cells incubated for 5 days with various concentrations of Tofacitinib and Jakafi, with cycloheximide as a positive control, and a “cells plus media” control used as well.
For all experiments, cells were incubated with media alone or drug-containing medium for 5 days prior to assessment of cell count and viability. […] Data are mean and standard deviations for at least three independent experiments conducted with at least four pooled donors, and duplicates within each experiment. Dotted bar represents mean cell count or viability for cells maintained in drug-free medium.

Another data set relates to MØ cells. The class given is cell-based. As to conditions: human. Here is the method:
The toxicity of the compounds was assessed in Vero, human PBM, CEM (human lymphoblastoid), as described previously (see Schinazi R. F., Sommadossi J.-P., Saalmann V., Cannon D. L., Xie M.-Y., Hart G. C., Smith G. A. & Hahn E. F. Antimicrob. Agents Chemother. 1990, 34, 1061-67), and also in MØ cells. Cycloheximide was included as positive cytotoxic control, and untreated cells exposed to cell culture medium were included as negative controls.
The cytotoxicity IC50 was obtained from the concentration-response curve using the median effective method described previously (see Chou T.-C. & Talalay P. Adv. Enzyme Regul. 1984, 22, 27-55; Belen'kii M. S. & Schinazi R. F. Antiviral Res. 1994, 25, 1-11).

A further data set has as its system HepG2 cells. As to conditions: 10 μM; cited from earlier work.
Another data set concerns mice. As to conditions: mouse, in vivo; cited from earlier work.

Consider `Cc1cn([C@H]2C[C@H](N=[N+]=[N-])[C@@H](CO)O2)c(=O)[nH]c1=O` [AZT, 3′-azido-3′-deoxythymidine], for which the “Inhibition of HIV-1 replication in primary human macrophages” value in the data set on HIV-1 (BaL) (HIV-1 BaL, p24 ELISA day 7) is recorded as “nanomolar inhibition”. Moreover, the EC50 in the data set with HIV-1 (BaL) (Human immunodeficiency virus 1, Macrophage, 168 h, HIV-1 BaL, extracellular virus 7 days after infection, read-out: Antiviral potency in primary human macrophages (EC50)) is 10 ± 20 nM. Besides, in the data set on HIV-1 (BaL) (Human immunodeficiency virus 1, Macrophage, 168 h, HIV-1 BaL, extracellular virus 7 days after infection, read-out: Antiviral potency in primary human macrophages (EC90)), the concentration for an effect of 90% (EC90) stood at 700 ± 200 nM. The same molecule gave an IC50 in data set [1] of more than 100000 nM.

As for `N#CC[C@H](C1CCCC1)n1cc(-c2ncnc3[nH]ccc23)cn1` [Jakafi], the “Inhibition of HIV-1 replication in MØ cells” value in the data set on HIV-1 (BaL) is “sub-micromolar”. In addition, the “Inhibition of HIV-1 replication in PBM cells” value with HIV-1 is recorded as “sub-micromolar”. Besides, in data set [2], the “Proliferation versus cells exposed to media alone” value is “not significantly different”, the Total cell proliferation entry is reported as “do not affect”, the Total cell viability result is recorded as “do not affect” and the “Viability versus cells exposed to media alone” value is “not significantly different”. In addition, in data set [2] (5 days), the “Viability, proliferation or total cell number not affected up to” value is “around 10 μM”. Moreover, the “Viability, proliferation or total cell number not affected up to” value in the data set on MØ cells is on record as “around 10 μM”.

On to `C[C@@H]1CCN(C(=O)CC#N)C[C@@H]1N(C)c1ncnc2[nH]ccc12` [Tofacitinib, 3-{(3R,4R)-4 methyl-3-[methyl-(7H-pyrrolo[2,3-d]pyrimidin-4-yl)-amino]-piperidin-1-yl}-3-oxo-propionitrile], for which the “Inhibition of HIV-1 replication in MØ cells” value in the data set with HIV-1 (BaL) was “sub-micromolar”. Further, the “Inhibition of HIV-1 replication in PBM cells” value in the data set on HIV-1 is on record as “sub-micromolar”. Further, in data set [2], the “Proliferation versus cells exposed to media alone” value is given as “not significantly different”, the Total cell proliferation result is on record as “do not affect”, the Total cell viability result is “do not affect” and the “Viability versus cells exposed to media alone” value is given as “not significantly different”. Moreover, in data set [2] (5 days), the “Viability, proliferation or total cell number not affected up to” value was “around 10 μM”. Moreover, in the data set on MØ cells, the “Viability, proliferation or total cell number not affected up to” value is on record as “around 10 μM”.

`C[C@@H]1C[C@@H]([C@H](O)CC2CC(=O)NC(=O)C2)C(=O)[C@@H](C)C1` [cycloheximide]: the “Cell count and viability (positive control)” value in data set [2] (stimulated lymphocytes, 5 days) is on record as “toxic in a dose dependent manner”.

Regarding `O=c1[nH]c(=O)n([C@@H]2O[C@H](CO)[C@@H](O)[C@@H]2F)cc1I` [fialuridine, 1,2′-deoxy-2′-fluoro-1-D-arabinofuranosly-5-iodo-uracil], the “Mitochondrial morphology in electron micrographs” value in the data set on HepG2 cells was “enlarged mitochondria with morphological changes consistent with mitochondrial dysfunction”.

For “LR6-1: LQEEDA, SEQ ID NO 4 (listed as Homo sapiens)”, in the data set with mice, the “Protection of mice against polymicrobial sepsis” value (“Protection of mice” for short) is recorded as “protect”.

Consider “LR6-2: EDAGEY, SEQ ID NO 5 (listed as Homo sapiens)”, for which, in the data set on mice, the “Protection of mice” value was “protect”.

With “LR6-3: GEYGCM, SEQ ID NO 6 (listed as Homo sapiens)”, the “Protection of mice” value with mice is on record as “protect”.
